Test results taken from a melting point compilation (Tetko et al.; mined from patent text by program, amines drawn as free bases though some values may be those of a salt).

Row | melting point [°C] | SMILES
1 | 153 | CCC1=C(C)CN(C(=O)NCC2CCOc3cc(OC)c(S(=O)(=O)NC(=S)NC(C)C)cc32)C1=O (stereo unspecified)
2 | 165 to 167 | CCc1cc(C(=O)c2ccccc2Cl)c(-n2cnnc2CNS(=O)(=O)c2ccc3ccccc3c2)s1
3 | 83 to 84 | CSCC1CCN(c2cn(-c3cccnc3)nc2Cl)C1=O (stereo unspecified)
4 | 226 to 228 | COC(=O)C1=C(C)NC2=C(C(=O)OC2)C1c1ccc2c(c1)OCO2 (stereo unspecified)
5 | 57 to 62 | CCN(CC)c1c(C(=O)O)ccc(OC)c1OC
6 | 128 to 129 | CSc1cccc(Oc2ncc(F)cc2C(=O)N[C@@H]2CCCC[C@H]2CO)c1 (relative stereo)
7 | 258 to 259 | COC(=O)c1cc(=O)c2c(C)cc(Br)cc2[nH]1
8 | 140 to 141 | Cc1cc(C(=O)NCO)ncc1C(c1c(F)ccc(F)c1F)S(=O)(=O)c1ccc(OC(F)(F)F)cc1 (stereo unspecified)
9 | 198 to 201 | COc1ccc2c(-c3ccc(OC(C)=O)cc3)c(-c3ccc(C(F)(F)F)cc3)c(=O)oc2c1
10 | 133 to 134 | CCCCCS(=O)(=O)NC(=O)/C=C/c1ccc(OCCOC)cc1Oc1ncc(-c2ccccc2)cc1C
11 | 213 | CCOc1cc(-c2cc(C(F)F)n3ncc(C(=O)Nc4cccc(S(=O)(=O)NC5CC5)c4)c3n2)ccc1C(F)(F)F
12 | 188 to 190 | CC(Cn1ncnn1)n1nnc2cc3c(cc2c1=O)OC1COCCN1C3=O (stereo unspecified)
13 | 156 to 158 | COc1ccc(CC(NC(=O)c2ccccc2)c2cccnc2)cc1OC (stereo unspecified)
14 | 75 to 78 | CC(=O)N(C1=C(NC2CC2)C(=O)c2c(cnn2C)C1=O)C1CC1
15 | 191 | CC(C)(C)c1cc(C=C2CCN(CCO)C2=O)cc(C(C)(C)C)c1O
16 | 286 | CCC(=O)Nc1ccc(CN2C(=O)[C@H]3CCC[C@H]3N(C(=O)CN3C(=O)c4ccccc4C3=O)c3ccccc32)cc1 (relative stereo)
17 | 48 to 52 | COC1=C(OC)C(O)C(CC=C(C)CCC=C(C)CCC=C(C)C)C(C)C1=O (stereo unspecified)
18 | 156 to 158 | NC(=Nc1ccc(-n2cccc2)c(CNC(=O)CCCCC2CCSS2)c1)c1cccs1 (stereo unspecified)
19 | 100 to 101 | CCOC(=O)c1cc(CC)sc1Nc1cc(F)ccc1N

The remaining lines, values behind:

Row | SMILES | melting point [°C]
20 | CN1CCC(C2Oc3cc(F)ccc3Cn3cccc32)CC1 (stereo unspecified) | 115 to 120
21 | CCn1ncc2c(NCCc3ccccc3)c3ccccc3nc21 | 157 to 158
22 | Cn1nc(-c2ccccc2C(F)(F)F)nc1-c1ccccc1C(F)(F)F | 108 to 111
23 | CCc1c(C(=O)C(C)C)c2ccc(C#N)cc2n1Cc1ccccc1Cl | 132 to 134
24 | Cc1ccccc1-c1nc(-c2cccc(Cl)c2)nn1C | 77 to 78
25 | C/C(=C\c1ccc(C(F)(F)F)cc1)C(=O)Nc1cc(Cl)ccc1C(=O)O | 228 to 229
26 | C1=C(N2c3ccccc3Sc3ccccc32)N(C2=NCCC2)CC1 | 199 to 201
27 | CCOc1nc(C)ccc1C#N | 90 to 92
28 | Cc1ccccc1C=CCN1CCc2nc(N)sc2CC1 | 112 to 115
29 | O=C(NC(Cc1ccc(OCc2ccccc2F)cc1)C(=O)O)c1cn2ccc(-c3ccc(Cl)cc3)cc2n1 (stereo unspecified) | 250 to 252
30 | Nc1ncnc2c1ncn2Cc1oc2ccc(Br)cc2c(=O)c1-c1ccccc1 | 207 to 209
31 | Cc1ccccc1CNc1cccc(-c2ccnc3c(C(=O)c4cccs4)cnn23)c1 | 177 to 179
32 | CC(O)c1cncc(C2(O)CCN(CC34CC(c5ccccc53)c3ccccc34)CC2)c1 (stereo unspecified) | 177 to 183
33 | CC(C)(C)c1cc(CCc2cc(CO)cc(CCc3cc(C(C)(C)C)cc(C(C)(C)C)c3)c2)cc(C(C)(C)C)c1 | 101
34 | O=c1oc(-c2ccccc2Cl)nn1-c1ccccc1C(F)(F)F | 100 to 102
35 | Cc1ccc(S(=O)(=O)Cc2ccc(C(O)(C(F)(F)F)C(F)(F)F)cc2)cc1 | 129
36 | O=C1c2ccccc2C(c2c(O)c3ccccc3oc2=O)N1c1ccccc1 (stereo unspecified) | 335 to 337
